# Experimental data taken from paper PMC8344761 (Journal of Enzyme Inhibition and Medicinal Chemistry, 2021).
# Like-named read-outs stand apart in the source and are kept apart here.
# Legend:
# A-Raf = biological target: T1, A-Raf (Homo sapiens, UniProt P10398); experiment: Raf kinase assay (Kinase HotSpot, Reaction Biology Corp.); type: biochemical; conditions: for inhibition at 1 µM: fixed concentration 1 μM, mean of two independent experiments
# T1 sequence (P10398 1-606): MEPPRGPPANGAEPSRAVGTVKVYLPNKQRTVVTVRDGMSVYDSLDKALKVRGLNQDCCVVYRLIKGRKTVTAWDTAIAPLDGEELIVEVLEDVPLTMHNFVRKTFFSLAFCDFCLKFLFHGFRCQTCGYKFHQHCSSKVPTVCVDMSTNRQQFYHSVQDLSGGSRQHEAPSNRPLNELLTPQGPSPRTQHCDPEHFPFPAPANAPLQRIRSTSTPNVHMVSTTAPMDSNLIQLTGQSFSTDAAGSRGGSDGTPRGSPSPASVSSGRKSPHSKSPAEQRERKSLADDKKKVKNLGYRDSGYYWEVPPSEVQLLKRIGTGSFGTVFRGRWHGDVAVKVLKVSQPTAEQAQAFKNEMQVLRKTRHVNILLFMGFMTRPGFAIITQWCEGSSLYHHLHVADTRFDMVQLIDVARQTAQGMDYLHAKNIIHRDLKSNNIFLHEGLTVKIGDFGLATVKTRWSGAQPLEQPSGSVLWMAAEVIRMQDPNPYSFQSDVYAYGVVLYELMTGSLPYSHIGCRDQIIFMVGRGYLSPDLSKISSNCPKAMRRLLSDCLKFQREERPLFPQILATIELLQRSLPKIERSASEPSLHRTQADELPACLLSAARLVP
# Protocol: Compounds were delivered into each Raf reaction, followed ∼20 min later by addition of a mixture of ATP and [γ-^33P-ATP] (specific activity approx. 500 cpm/pmol, concentration as required) to a final concentration of 10 µM. […] Then, the reaction was spotted onto a P30 filtermat, and unbound phosphate was removed by washing three times for 5 min in 75 mM phosphoric acid and once in methanol prior to drying and scintillation counting. […] IC50 values and curve fits were obtained using Prism (GraphPad Software, La Jolla, CA).
# B-Raf = B-Raf (Homo sapiens, UniProt P15056); experiment: as above; type: biochemical; conditions: for inhibition at 1 µM: fixed concentration 1 μM, mean of two independent experiments
# Protocol: (§1) Compounds were delivered into each Raf reaction, followed ∼20 min later by addition of a mixture of ATP and [γ-^33P-ATP] (specific activity approx. 500 cpm/pmol, concentration as required) to a final concentration of 10 µM. After incubation for 40 min at 25 °C, the reaction was stopped by the addition of a 3% phosphoric acid solution. Then, the reaction was spotted onto a P30 filtermat, and unbound phosphate was removed by washing three times for 5 min in 75 mM phosphoric acid and once in methanol prior to drying and scintillation counting. […] IC50 values and curve fits were obtained using Prism (GraphPad Software, La Jolla, CA).
# B-Raf (V600E) = B-Raf (V600E) (Homo sapiens, UniProt P15056, V600E); experiment: as above; type: biochemical; conditions: for inhibition at 1 µM: fixed concentration 1 μM, mean of two independent experiments, B-Raf (V599E)
# Protocol: as §1
# C-Raf = C-Raf (Homo sapiens, UniProt P04049); experiment: as above; type: biochemical; conditions: for inhibition at 1 µM: read-out: Inhibition (%) C-Raf
# Protocol: as §1
# VEGFR-2 tyrosine kinase = biological target: T2, VEGFR-2 tyrosine kinase (Homo sapiens, UniProt P35968); experiment: VEGFR-2 (KDR) kinase assay (ADP-glow); type: biochemical; conditions: fixed concentration 1 µM; read-out: inhibitory activity against VEGFR-2 tyrosine kinase
# T2 construct: purchased Promega
# Hep3B = experiment: Cell proliferation assay (MTT); type: cell-based; conditions: Homo sapiens, 48 h, mean ± SEM of three independent experiments, read-out: Cancer cell proliferation IC50 Hep3B
# Protocol: (§2) Hepatocellular carcinoma cell lines (HepG2, Huh7), human pancreatic ductal epithelial cell line (H6c7), and normal human colon cell line (CCD841) were obtained from the American Type Culture Collection (ATCC) (Manassas, VA, USA). Cells were cultured in DMEM/High Glucose media (Hep3B, Huh7, CCD841) or MEM/EBSS media (HepG2) containing 10% FBS, 100 IU/ml of penicillin and 100 µg/ml of streptomycin. H6c7 cells were cultured in keratinocyte serum free media supplemented with epidermal growth factor and bovine pituitary extract. Cells were maintained in 5% CO2 humidified atmosphere at 37 °C.
# (§3) Cells were seeded in a 96-well plate and allowed to adhere for 24 h. The cells were serum starved in 1% serum containing medium for 12 h, and then treated with drugs in 10% serum-containing medium. After incubation for 48 h, cell proliferation was measured using MTT assay. Optical density was measured at 540 nm using a Spectrostar Nano microplate reader (BMG LABTECH GmbH, Ortenberg, Germany).
# HepG2 = experiment: Cell proliferation assay (MTT); type: cell-based; conditions: Homo sapiens, 48 h, mean ± SEM of three independent experiments, read-out: Cancer cell proliferation IC50 HepG2
# Protocol: as §2, §3
# Huh7 = experiment: Cell proliferation assay (MTT); type: cell-based; conditions: Homo sapiens, Huh-7, 48 h, mean ± SEM of three independent experiments, read-out: Cancer cell proliferation IC50 Huh7
# Protocol: as §2, §3
# [1] = Cytotoxicity assay (MTT), normal cells; type: cell-based, human; conditions: human, mean ± SEM
# Protocol: as §2
# (§4) Cells were seeded in a 96-well plate and allowed to adhere for 24 h. Cells in low serum (1%)-containing medium were treated with drugs for 48 h. In case of H6c7 cells, cells in keratinocyte serum free media were treated with drugs for 48 h. Then, cell viability was measured using MTT assay. Optical density was measured at 540 nm using a Spectrostar Nano microplate reader (BMG LABTECH).
# Hep3B cells = experiment: Sphere formation assay; type: cell-based; conditions: Homo sapiens, 48 h drug treatment, 13 days culture, read-out: % Inhibition of sphere forming Hep3B
# Protocol: (§5) Sphere forming ability of Hep3B and Huh7 cells were examined after incubation with drugs for 48 h. Briefly, 3 × 10^3 cells which were pre-treated with or without drugs in prEGM media (Lonza, Basel, Switzerland) were seeded on an ultra-low adhering 24 well plate (Corning Incorporated Costar, Corning, NY). Twice a week, 500 µL of used medium was replaced with fresh prEGM media. At 13 days after plating, images of spheres were captured using Celloger Mini (Curiosis Inc., Seoul, South Korea). The number of spheroids over 50 µm in diameter was counted by using Image J software (National Institute of Health, Bethesda, MD).
# Huh7 cells = experiment: Sphere formation assay; type: cell-based; conditions: Homo sapiens, Huh-7, 48 h drug treatment, 13 days culture, read-out: % Inhibition of sphere forming Huh7
# Protocol: as §5
# CCD841 = experiment: Cytotoxicity assay (MTT), normal cells; type: cell-based, human; conditions: normal colon epithelial cell line, 48 h, mean ± SEM
# Protocol: as §2, §4
# H6c7 = experiment: Cytotoxicity assay (MTT), normal cells; type: cell-based, human; conditions: normal pancreatic ductal epithelial cell line, 48 h, mean ± SEM
# Protocol: as §2, §4
# [2] = tested on: Huh7 cells xenografted onto CAM; experiment: Huh7-xenografted CAM tumour model; type: in vivo, chick; conditions: 10 µM final concentration on CAM; Huh7 xenograft
# Protocol: Cancer cell xenograft onto chick chorioallantoic membrane (CAM), an in vivo tumour model, was used to evaluate anti-tumour efficacy of compounds. Fertilised chicken eggs purchased from Byeolbichon Farm (Gyeongbuk, South Korea) were incubated at 37 °C with 55% relative humidity. On day 9 of egg incubation (embryonic day 9, E9), a small hole was made in the shell over the air sac after the selection of bifurcated vessels. Another hole was made on the broadside using a needle by applying negative pressure from the wider part, creating false air sac. Using a grinding wheel (Dremel, Racine, WI), a small window (1 cm^2) was created in the eggshell above the false air sac. For generation of xenograft CAM tumour model, Huh7 cells (1.5 × 10^6 cells/CAM) were inoculated on the CAM with or without test drugs (10 µM final concentration). On day 13 of egg incubation (E13), tumour tissues attached to CAM were resected from the embryo and harvested. Photographs of tumour as well as blood vessel branches were taken using optical microscope (Olympus Corporation, Tokyo, Japan). Tumour tissues were weighted and the number of vessel branch points within the tumour region was counted.
# [3] = fixed concentration 1 μM, mean of two independent experiments
# [4] = CCD841 cells (normal colon epithelial cell line)
# [5] = H6c7 cells (normal pancreatic ductal epithelial cell line)
# B-Raf, sequence (P15056 whole entry): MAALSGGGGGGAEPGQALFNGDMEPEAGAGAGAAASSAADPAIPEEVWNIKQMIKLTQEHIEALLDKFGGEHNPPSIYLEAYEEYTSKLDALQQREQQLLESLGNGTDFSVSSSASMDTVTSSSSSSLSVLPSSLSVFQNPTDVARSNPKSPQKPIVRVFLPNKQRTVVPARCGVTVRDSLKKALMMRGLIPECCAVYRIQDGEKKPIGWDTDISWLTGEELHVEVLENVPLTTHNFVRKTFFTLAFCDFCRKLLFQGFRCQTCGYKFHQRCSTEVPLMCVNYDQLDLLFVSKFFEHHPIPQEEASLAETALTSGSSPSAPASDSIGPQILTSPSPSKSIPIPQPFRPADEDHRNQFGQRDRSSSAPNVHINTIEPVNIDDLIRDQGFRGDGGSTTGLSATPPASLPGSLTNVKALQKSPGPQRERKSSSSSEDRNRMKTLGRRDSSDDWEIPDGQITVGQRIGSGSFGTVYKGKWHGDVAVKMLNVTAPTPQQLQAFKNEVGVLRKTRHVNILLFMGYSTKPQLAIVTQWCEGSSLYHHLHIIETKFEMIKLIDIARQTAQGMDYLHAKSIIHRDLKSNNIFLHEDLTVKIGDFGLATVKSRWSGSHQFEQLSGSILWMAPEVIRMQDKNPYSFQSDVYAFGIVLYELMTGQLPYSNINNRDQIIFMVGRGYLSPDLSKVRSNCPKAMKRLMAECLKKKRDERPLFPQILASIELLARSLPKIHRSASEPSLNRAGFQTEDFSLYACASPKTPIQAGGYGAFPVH
# B-Raf (V600E), sequence (P15056 whole entry V600E): as the sequence (P15056 whole entry) above, with V600E counted along it
# C-Raf, sequence (P04049 whole entry): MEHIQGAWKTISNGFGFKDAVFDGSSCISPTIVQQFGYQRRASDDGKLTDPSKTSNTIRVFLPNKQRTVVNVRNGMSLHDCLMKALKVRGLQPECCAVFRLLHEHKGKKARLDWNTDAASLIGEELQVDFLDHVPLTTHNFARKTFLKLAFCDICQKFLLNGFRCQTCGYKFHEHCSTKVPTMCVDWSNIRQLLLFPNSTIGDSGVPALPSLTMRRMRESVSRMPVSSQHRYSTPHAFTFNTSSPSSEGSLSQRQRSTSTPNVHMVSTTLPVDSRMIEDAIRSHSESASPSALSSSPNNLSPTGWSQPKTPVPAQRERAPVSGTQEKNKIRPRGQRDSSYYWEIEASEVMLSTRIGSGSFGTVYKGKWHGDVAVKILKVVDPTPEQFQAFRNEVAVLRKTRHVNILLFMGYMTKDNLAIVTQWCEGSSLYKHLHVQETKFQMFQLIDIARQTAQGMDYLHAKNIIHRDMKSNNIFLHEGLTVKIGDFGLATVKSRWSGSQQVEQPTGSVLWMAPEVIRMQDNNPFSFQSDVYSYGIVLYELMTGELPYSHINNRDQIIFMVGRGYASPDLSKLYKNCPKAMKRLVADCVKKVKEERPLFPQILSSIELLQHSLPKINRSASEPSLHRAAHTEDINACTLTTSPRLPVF
# T2 sequence (P35968 20-1356): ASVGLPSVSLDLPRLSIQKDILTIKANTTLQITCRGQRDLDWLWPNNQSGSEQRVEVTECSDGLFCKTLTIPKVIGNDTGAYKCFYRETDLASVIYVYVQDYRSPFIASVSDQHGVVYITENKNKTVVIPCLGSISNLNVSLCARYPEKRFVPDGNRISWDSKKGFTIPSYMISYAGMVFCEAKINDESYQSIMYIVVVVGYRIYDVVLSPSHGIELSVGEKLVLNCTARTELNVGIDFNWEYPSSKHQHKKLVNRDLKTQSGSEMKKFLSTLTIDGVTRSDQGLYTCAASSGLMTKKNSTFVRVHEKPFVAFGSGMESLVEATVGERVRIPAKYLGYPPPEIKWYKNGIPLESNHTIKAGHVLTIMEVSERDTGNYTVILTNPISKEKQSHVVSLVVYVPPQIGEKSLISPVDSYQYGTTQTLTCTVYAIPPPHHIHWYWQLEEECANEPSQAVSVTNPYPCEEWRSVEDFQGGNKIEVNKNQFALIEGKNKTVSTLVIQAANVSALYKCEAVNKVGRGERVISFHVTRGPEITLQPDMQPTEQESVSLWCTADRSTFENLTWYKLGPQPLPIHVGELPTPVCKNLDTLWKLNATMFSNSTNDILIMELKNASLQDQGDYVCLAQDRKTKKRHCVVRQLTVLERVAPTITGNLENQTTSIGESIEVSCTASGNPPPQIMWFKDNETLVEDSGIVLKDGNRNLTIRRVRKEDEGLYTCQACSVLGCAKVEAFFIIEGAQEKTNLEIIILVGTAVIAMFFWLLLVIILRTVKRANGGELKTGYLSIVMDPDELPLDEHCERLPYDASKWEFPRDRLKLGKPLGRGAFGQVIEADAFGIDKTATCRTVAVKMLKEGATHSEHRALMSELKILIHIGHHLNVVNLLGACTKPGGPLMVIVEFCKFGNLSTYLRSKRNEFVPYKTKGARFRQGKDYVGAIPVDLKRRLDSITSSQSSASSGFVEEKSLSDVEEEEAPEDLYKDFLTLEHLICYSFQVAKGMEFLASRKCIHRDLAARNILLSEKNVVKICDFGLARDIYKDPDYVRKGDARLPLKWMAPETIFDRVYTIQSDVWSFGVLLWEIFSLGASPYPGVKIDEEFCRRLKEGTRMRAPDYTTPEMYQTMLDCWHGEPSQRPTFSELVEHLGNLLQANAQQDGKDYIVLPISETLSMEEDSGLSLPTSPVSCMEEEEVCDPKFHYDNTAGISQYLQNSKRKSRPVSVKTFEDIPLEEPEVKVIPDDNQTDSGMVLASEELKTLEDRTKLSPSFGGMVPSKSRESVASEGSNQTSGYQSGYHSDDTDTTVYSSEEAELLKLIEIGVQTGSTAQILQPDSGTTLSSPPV
SMILES,inhibition at 1 µM (A-Raf),inhibition at 1 µM (B-Raf),inhibition at 1 µM (B-Raf (V600E)),inhibition at 1 µM (C-Raf; [3]),IC50 (Hep3B),IC50 (HepG2),IC50 (Huh7),"CC50 at 48 h [1, 4]","CC50 at 48 h [1, 5]",inhibition at 1 µM (Hep3B cells),inhibition at 10 µM (Hep3B cells),inhibition at 1 µM (Huh7 cells),inhibition at 10 µM (Huh7 cells),melting point,other results
"CNC(=O)c1cc(Oc2c(C)nc(NC(=O)Nc3cccc(C(F)(F)F)c3)c(C)c2C)ccn1 [Compound 6, N-Methyl-4-((2,4,5-trimethyl-6–(3-(3-(trifluoromethyl)phenyl)ureido)pyridin-3-yl)oxy)picolinamide]",84.6%,65%,88.2%,92.5%,6.49 ± 0.12 µM,5.02 ± 0.06 µM,4.77 ± 0.09 µM,> 10 µM,> 10 µM,38.3%,55.6%,23.8%,44.2%,244 °C,"IC50 (A-Raf; mean ± SD of two independent experiments, read-out: In vitro Raf kinase inhibition IC50 A-Raf): 0.057 ± 0.0086 µM; IC50 (B-Raf; mean ± SD of two independent experiments, read-out: In vitro Raf kinase inhibition IC50 B-Raf): 0.216 ± 0.0436 µM; IC50 (B-Raf (V600E); mean ± SD of two independent experiments, read-out: In vitro Raf kinase inhibition IC50 B-Raf(V600E)): 0.07 ± 0.0004 µM; IC50 (C-Raf; mean ± SD of two independent experiments, read-out: In vitro Raf kinase inhibition IC50 C-Raf): 0.022 ± 0.0008 µM; inhibition at 1 µM (VEGFR-2 tyrosine kinase): ~-6%"
"CNC(=O)c1cc(Oc2c(C)nc(NC(=O)Nc3ccc(Cl)c(C(F)(F)F)c3)nc2C)ccn1 [Compound 28, 4-((2-(3-(4-Chloro-3-(trifluoromethyl)phenyl)ureido)-4,6-dimethylpyrimidin-5-yl)oxy)-N-methylpicolinamide]",72.4%,48.5%,75.2%,91%,,,,,,,,,,251 °C,
"CNC(=O)c1cc(Oc2ccc(NC(=O)Nc3ccc(Cl)c(C(F)(F)F)c3)cc2)ccn1 [Sorafenib, reference compound]",93.7%,,,,1.22 ± 0.05 µM,1.29 ± 0.02 µM,1.17 ± 0.04 µM,~4.1 µM,~4.4 µM,43.6%,56.4%,59.7%,85.9%,,inhibition at 1 µM (C-Raf): 97.6%; CC50 (CCD841): 4.08 ± 0.58 µM; CC50 (H6c7): 4.36 ± 0.21 µM; inhibition of tumour-induced angiogenesis (new vessel branches) [2]: significantly blocked
